{
  "source": "paper PMC8802628",
  "about": "“Selective activation of PFKL suppresses the phagocytic oxidative burst” (Cell, 2021)",
  "target": "T1, PFKL (Homo sapiens, UniProt P17858)",
  "T1 construct": "endogenous in cells; host or cells: THP-1 cell lysate",
  "T1 sequence (P17858 2-780 limits assumed)": "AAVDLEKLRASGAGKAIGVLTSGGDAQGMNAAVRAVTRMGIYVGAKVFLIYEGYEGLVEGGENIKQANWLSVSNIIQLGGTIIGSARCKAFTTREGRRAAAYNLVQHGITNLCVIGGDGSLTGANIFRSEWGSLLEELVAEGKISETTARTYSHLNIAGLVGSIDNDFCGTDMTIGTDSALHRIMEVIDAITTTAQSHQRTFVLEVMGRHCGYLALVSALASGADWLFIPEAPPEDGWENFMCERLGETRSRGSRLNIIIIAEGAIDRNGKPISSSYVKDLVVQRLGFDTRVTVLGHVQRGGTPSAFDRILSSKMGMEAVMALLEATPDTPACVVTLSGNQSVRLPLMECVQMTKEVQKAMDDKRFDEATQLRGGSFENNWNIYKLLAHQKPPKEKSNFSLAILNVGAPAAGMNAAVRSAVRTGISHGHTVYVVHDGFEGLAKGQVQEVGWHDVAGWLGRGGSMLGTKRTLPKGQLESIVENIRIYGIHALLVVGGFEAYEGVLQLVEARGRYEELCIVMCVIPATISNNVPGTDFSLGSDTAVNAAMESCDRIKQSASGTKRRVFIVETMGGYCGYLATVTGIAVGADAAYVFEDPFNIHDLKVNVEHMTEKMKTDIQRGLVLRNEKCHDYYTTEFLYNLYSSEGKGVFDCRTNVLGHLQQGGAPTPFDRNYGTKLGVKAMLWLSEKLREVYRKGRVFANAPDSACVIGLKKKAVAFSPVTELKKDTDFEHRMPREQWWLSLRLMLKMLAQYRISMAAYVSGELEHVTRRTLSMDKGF",
  "experiment": "Photoaffinity labeling pull-down in human blood leukocytes",
  "format": "binding",
  "details": "1 μM probe, competition with 10 μM NA-11",
  "experimental": "Buffy coats (100 mL) were diluted with ice-cold water (540 mL) for 30 s to lyse red blood cells. Following addition of 10 x HBSS buffer (50 mL) leukocytes were pelleted for 3 min at 300 x g, then washed twice in D-PBS and resuspended in RPMI medium. Cells (2 × 10^7) were plated on 15-cm dishes in DMSO vehicle, 1 μM PALP1 or 1 μM PALP6 for 30 min at 37°C. For competition, 10 μM NA-11 was added for 15 min, and then 1 μM PALP1 was added for an additional 30 min. To crosslink the photoaffinity probe, cells were UV-irradiated (High intensity mercury spot lamp, 100W, 365 nm, UVP) in RPMI for 5 min on ice. Cells were lysed in 200 μL 10 mM Tris pH 7.5, 150 mM NaCl, 1% NP-40, 2.5 mM MgCl2, 0.5 mM CaCl2, 2% glycerol, 10 μg/mL DNase-I, and 1 x EDTA-free Protease inhibitor cocktail. Lysates from 5 plates for each condition were pooled and incubate 10 min on ice.\nBiotin-DADPS tagging, biotin-streptavidin affinity purification, and on-bead digestion were performed as described ([Hewings et al., 2018]). Briefly, lysates were cleared by centrifugation and the lysate concentration adjusted to 5 mg/mL. Streptavidin Ultralink Resin (100 μL of 50% slurry, Pierce) was washed twice with PBS and mixed with 1 mL of lysate for 30 min at room temperature. […]\nFor the classical TPP, quantitative data from each temperature were used to generate a thermal titration curve and calculate a melting point. […]",
  "data": [
    {"smiles": "CC(=O)Nc1ccc2c(c1)OCc1cc(-c3ccccc3C#CCCCO)nn1C2", "note": "[NA-11]", "values": [
      {"measurement": "photoaffinity labeling / pull-down of PFKL", "value": "competed effectively by NA-11"}
    ]}
  ]
}
